Where a name gives a salt, the structure may show the parent alone. Read-outs that look alike come from different tables or passages of the source.
Experiments:
[1] = system: myosin regulatory light chain; test: Action on amount of phosphorylated myosin regulatory light chain in the cells (Test Example 1); format: cell-based, human; details: neutrophils of healthy volunteers, reaction with test compound at 25°C for 5 minutes, read-out: Inhibition of myosin regulatory light chain phosphorylation (IC50: µM)
Experimental: The neutrophils were washed with PBS(-) and resuspended in Hanks' Balanced Salt Solution (HBSS+, Gibco) to prepare a cell suspension (8 x 10^6/ml). The cell suspension was diluted to 5 x 10^6/ml, introduced into Eppendorf tubes in a volume of 0.4 ml each, then 0.1 ml each of solutions of a test compound at various concentrations were added to the suspension and allowed to react at 25°C for 5 minutes. After the reaction, 0.1 ml of trichloroacetic acid solution was added to each reaction, the reaction mixture was gently shaken and centrifuged at 12,000 rpm (4°C, 5 minutes), and the supernatant was removed. Subsequently, 3 μl of 1 M Tris solution was added to the residue, the mixture was further mixed with 50 μl of extraction buffer (8 M urea, 0.02% 2-mercaptoethanol, 0.002% bromophenol blue) and left stand at room temperature for 1 hour. Then, the reaction mixture was loaded on a spin column (0.45 μm, Millipore) to remove the insoluble solids and a sample buffer for SDS polyacrylamide gel electrophoresis (25 mM, Tris-HCl pH 6.8, 2.5% 2-mercaptoethanol, 2% sodium dodecylsulfate, 5% sucrose, 0.002% bromophenol blue as final concentrations) was added, and 10 μl of each sample was subjected to electrophoresis. […] J. Physiol., 274, […]-[…] (1998)), which specifically recognize the phosphorylated myosin regulatory light chain, and donkey anti-mouse IgG (Chemicon) conjugated with horseradish peroxidase (HRP-labeled). The band of the phosphorylated myosin regulatory light chain was detected on a film by using ECL Plus Kit (Amersham Pharmacia Biotech). This band was subjected to quantification using a densitometer. By using this value, the inhibitory ratio (%) for phosphorylation of the myosin regulatory light chain was calculated by using the following equation.

[2] = system: thoracic aorta; test: Vasoconstriction inhibitory action on aorta rings constricted with phenylephrine (Test Example 2); set-up: species or system Rats (Wistar, 11-week old); details: result in words; aorta constricted with phenylephrine (1 µM)
Source text: Rats (Wistar, 11-week old) were bleeded to death and laparotomized to take out the thoracic aorta.

[3] = system: Japanese white rabbit; test: Intraocular pressure reducing action (Test Example 4); format: in vivo; details: for intraocular pressure reducing activity: result in words
Experimental: A Japanese white rabbit having a body weight of about 2 kg was placed in a positioner and naturalized for one week before the experiment. An ophthalmologic local […] (Benoxil) was administered to the left eye, and then intraocular pressure was measured by using a tonometer (Classic 30, Solan). The initial value of the intraocular pressure was measured, then 50 μl of a test compound (1% aqueous solution) was dropped to the left eye, and after 2 hours, the intraocular pressure was measured. The intraocular pressure reducing action of the test compounds is shown in Table 7 mentioned below as ratios (%) of reduction of intraocular pressure based on the initial value of the intraocular pressure.

[4] = system: Neutrophils; test: Neutrophil migration inhibitory action, Boyden Chamber, FMLP (Test Example 5); format: cell-based, human; details: Homo sapiens, Neutrophil, 0.5 h, FMLP (1 µM), migration at 37°C for 30 minutes; read-out: Neutrophil migration inhibition IC50
Experimental: Neutrophils were isolated from 50 to 100 ml of peripheral blood collected from healthy donors by the method described in Test Example 1 to obtain a cell suspension (8 x 10^6/ml). Subsequently, solutions of a test compound at various concentrations were introduced into wells of a 96-well plate in a volume of 125 µl per well, the cell suspension of an equivalent volume was added to it and the plate was preincubated at room temperature for 5 minutes. During the preincubation, FMLP (1 µM, Sigma) solution was added to the lower chamber to set Boyden Chamber, the preincubated cell suspension was added to the upper chamber in a volume of 200 µl per well, and the cells were allowed to migrate at 37°C under 5% carbon dioxide for 30 minutes. The filter after the migration was collected, and the non-migrated cells adhered to the surface that faced the upper chamber were carefully wiped off. Then, the migrated cells on the back surface were stained with DifQuick dye solution (International Reagents), washed with water and dried, and then absorbance was measured at 595 nm. The inhibition ratio against migration (%) of a test compound was calculated by using the following equation: Migration inhibition ratio (%) = (1 -Absorbance of the group with addition of test compound /Absorbance of the group without addition of test compound) x 100 [formula]

[5] = system: ovalbumin-immunized guinea pigs; test: Respiratory tract constriction suppression action, ovalbumin-induced (Test Example 3); format: in vivo, Hartley guinea pigs; details: result in words; test medicament given into hind leg vein after induction with 0.3 mg/kg ovalbumin, measured for 15 minutes
Experimental: Four-week old Hartley guinea pigs (male) were immunized by intraperitoneal administration of ovalbumin (Sigma, Grade V) in amounts of 1 mg for each animal on the day on which the experiment was started, 3 mg for each animal after 2 days, and 10 mg for each animal after 4 days. Twelve to fourteen days after the final immunization, the ovalbumin-immunized guinea pigs were anesthetized by intraperitoneal administration of about 40 mg/kg of pentobarbital (Somnopentyl), and the tracheas were taken out. Subsequently, a cannula (SP-110, Natsume) was inserted into each trachea, and one end of the cannula was connected to an artificial respirator (Model-b83, Harvard). The aeration conditions were set at 6 ml per kilogram and 60 times per 1 minute. Further, a cannula for medicament administration (JMS wing needle 23G 3/4) was inserted into a hind leg vein. Myoblock (Organon Technica) was administered in an amount of 0.5 mg/kg from the cannula inserted into the hind leg vein to stop the spontaneous breathing, and after 2 or 3 minutes, 0.3 mg/kg of ovalbumin was administered to induce constriction of respiratory tract. The increase of airway resistance value 2 minutes after the induction (measurement apparatuses: pressure transducer TR-603T, respiratory amplifier AR-601G, and recorder RTA-3100, Nihon Kohden Corp.) was confirmed to be above 80 cm H2O or higher, and then, a solution of a test medicament was administered from the cannula inserted into the hind leg vein, and the airway resistance value was continuously measured for 15 minutes after the administration to determine the effect.

[6] = Homo sapiens, Neutrophil, 5 min

SMILES: C=Cc1cncc2cccc(O[C@H]3CC[C@H](N)CC3)c12.Cl [Example 136, Trans-4-[(4-vinyl-5-isoquinolyl)oxy]cyclohexylamine hydrochloride]
- IC50 [1, 6]: ≤ 40 µM
- IC50 ([1]; hydrochloride): ≤ 20 µM
- vasoconstriction inhibitory action [2]: significant vasoconstriction inhibitory action
- intraocular pressure reducing activity [3]: significant intraocular pressure reducing activity
- IC50 [4]: ≤ 40 µM

SMILES: Cl.N[C@H]1CC[C@H](Oc2cccc3cncc(Br)c23)CC1 [Example 133, Trans-4-[(4-bromo-5-isoquinolyl)oxy]cyclohexylamine hydrochloride]
- IC50 [1, 6]: ≤ 40 µM
- IC50 ([1]; hydrochloride): ≤ 20 µM
- constriction of respiratory tract (airway resistance value) [5]: significantly improved the constriction of respiratory tract
- intraocular pressure reducing activity [3]: significant intraocular pressure reducing activity

SMILES: CS(=O)(=O)c1ccc(CCCN(CCCN)S(=O)(=O)c2cccc3cnccc23)cc1.Cl [Example 124, N-[(5-Isoquinolyl)sulfonyl]-N-[3-(4-methanesulfonyl)phenylpropyl]-1,3-propylenediamine hydrochloride]
- IC50 ([1]; hydrochloride): ≤ 20 µM
- Intraocular pressure reducing action (reduction ratio) (%) ([3]; 50 µl of test compound (1% aqueous solution) dropped to the left eye, after 2 hours): 12.5%

SMILES: Brc1cncc2cccc(NC3CCNCC3)c12 [Example 103, 4-(4-Bromo-5-isoquinolyl)aminopiperidine hydrochloride]
- IC50 [1, 6]: ≤ 40 µM
- IC50 ([1]; hydrochloride): ≤ 20 µM
- inhibition in vivo at 1 % ([3]; Oryctolagus cuniculus, topical, 50 µl of test compound (1% aqueous solution) dropped to the left eye, after 2 hours, read-out: Intraocular pressure reducing action (reduction ratio) (%)): 31.3%
- IC50 [4]: 1 to 10 µM

SMILES: Cl.OCCN1CCC(Nc2cccc3cnccc23)CC1 [Example 144, 1-(2-Hydroxyethyl)-4-(5-isoquinolyl)aminopiperidine hydrochloride]
- IC50 [1, 6]: ≤ 40 µM
- constriction of respiratory tract (airway resistance value) [5]: significantly improved the constriction of respiratory tract
- intraocular pressure reducing activity [3]: significant intraocular pressure reducing activity

SMILES: Cl.Clc1cncc2cccc(NC3CCNCC3)c12 [Example 118, 4-(4-Chloro-5-isoquinolyl)aminopiperidine hydrochloride]
- IC50 [1, 6]: ≤ 40 µM
- IC50 ([1]; hydrochloride): ≤ 20 µM
- constriction of respiratory tract (airway resistance value) [5]: significantly improved the constriction of respiratory tract

SMILES: Cc1cncc2cccc(OC3CCNCC3)c12.Cl [Example 139, 4-[(4-Methyl-5-isoquinolyl)oxy]piperidine hydrochloride]
- IC50 [1, 6]: ≤ 40 µM
- IC50 ([1]; hydrochloride): ≤ 20 µM
- vasoconstriction inhibitory action [2]: significant vasoconstriction inhibitory action
- intraocular pressure reducing activity [3]: significant intraocular pressure reducing activity

SMILES: Cl.OCCCN1CCC(Nc2cccc3cnccc23)CC1 [Example 145, 1-(3-Hydroxypropyl)-4-(5-isoquinolyl)aminopiperidine hydrochloride]
- IC50 [1, 6]: ≤ 40 µM
- IC50 ([1]; hydrochloride): ≤ 20 µM
- intraocular pressure reducing activity [3]: significant intraocular pressure reducing activity
- IC50 [4]: ≤ 40 µM

SMILES: Cc1cncc2cccc(N[C@H]3CC[C@H](N)CC3)c12.Cl [Example 121, Trans-N-(4-methyl-5-isoquinolyl)-1,4-cyclohexanediamine hydrochloride]
- IC50 [1, 6]: ≤ 40 µM
- IC50 ([1]; hydrochloride): ≤ 20 µM
- vasoconstriction inhibitory action [2]: significant vasoconstriction inhibitory action
- constriction of respiratory tract (airway resistance value) [5]: significantly improved the constriction of respiratory tract
- IC50 [4]: 1 to 10 µM

SMILES: Cl.N#Cc1cncc2cccc(O[C@H]3CC[C@H](N)CC3)c12 [Example 134, Trans-4-[(4-cyano-5-isoquinolyl)oxy]cyclohexylamine hydrochloride]
- IC50 [1, 6]: ≤ 40 µM
- IC50 ([1]; hydrochloride): ≤ 20 µM
- vasoconstriction inhibitory action [2]: significant vasoconstriction inhibitory action
- intraocular pressure reducing activity [3]: significant intraocular pressure reducing activity

SMILES: Cc1cncc2cccc(O[C@H]3CC[C@H](N)CC3)c12.Cl [Example 140, Trans-4-[(4-methyl-5-isoquinolyl)oxy]cyclohexylamine hydrochloride]
- IC50 [1, 6]: ≤ 40 µM
- IC50 ([1]; hydrochloride): ≤ 20 µM
- vasoconstriction inhibitory action [2]: significant vasoconstriction inhibitory action
- constriction of respiratory tract (airway resistance value) [5]: significantly improved the constriction of respiratory tract
- intraocular pressure reducing activity [3]: significant intraocular pressure reducing activity

SMILES: Cl.N[C@H]1CC[C@H](Oc2cccc3cnccc23)CC1 [Example 135, Trans-4-[(5-isoquinolyl)oxy]cyclohexylamine hydrochloride]
- IC50 [1, 6]: ≤ 40 µM
- IC50 ([1]; hydrochloride): ≤ 20 µM
- intraocular pressure reducing activity [3]: significant intraocular pressure reducing activity

SMILES: CCc1cncc2cccc(NC3CCNCC3)c12.Cl [Example 113, 4-(4-Ethyl-5-isoquinolyl)aminopiperidine hydrochloride]
- IC50 [1, 6]: ≤ 40 µM
- IC50 ([1]; hydrochloride): ≤ 20 µM
- vasoconstriction inhibitory action [2]: significant vasoconstriction inhibitory action
- intraocular pressure reducing activity [3]: significant intraocular pressure reducing activity
- IC50 [4]: ≤ 40 µM

SMILES: Cc1cncc2cccc(N[C@H]3CC[C@@H](N)CC3)c12.Cl [Example 120, Cis-N-(4-methyl-5-isoquinolyl)-1,4-cyclohexanediamine hydrochloride]
- IC50 [1, 6]: ≤ 40 µM
- IC50 ([1]; hydrochloride): ≤ 20 µM
- vasoconstriction inhibitory action [2]: significant vasoconstriction inhibitory action
- intraocular pressure reducing activity [3]: significant intraocular pressure reducing activity

SMILES: Cl.Nc1nccc2c(OCC3CCCNC3)cccc12 (stereo not shown) [Example 11, 3-[(1-Amino-5-isoquinolyl)oxy]methylpiperidine hydrochloride]
- IC50 [1, 6]: 1 to 20 µM
- constriction of respiratory tract (airway resistance value) [5]: significantly improved the constriction of respiratory tract
- IC50 [4]: 1 to 10 µM

SMILES: Cl.NC1CCC(Nc2cccc3cncc(Br)c23)CC1 (stereo not shown) [Example 107, N-(4-Bromo-5-isoquinolyl)-1,4-cyclohexanediamine hydrochloride]
- IC50 [1, 6]: ≤ 40 µM
- IC50 ([1]; hydrochloride): ≤ 20 µM
- intraocular pressure reducing activity [3]: significant intraocular pressure reducing activity
